Data reported in patent EP0353416A2, “Use of ajoene and ajoene derivatives as cytostatics” (Gesellschaft für Biotechnologische Forschung mbH (GBF), priority 1988, dated 1990).

Experiments:
[1] = test system: SV40-transformierten Baby-Hamster-Kidney-Linie (BHK; Fibroblast); assay: Inhibition of proliferation by incorporation of radioactive thymidine, BHK cell culture; assay type: cell-based; conditions: BHK cells
Excerpt: (§1) Man ließ Ajoen auf eine Zellkultur der SV40-transformierten Baby-Hamster-Kidney-Linie (BHK; Fibroblast) einwirken. Die Proliferationshemmung wurde über den Einbau von radioaktivem Thymidin getestet.

[2] = as above; assay type: cell-based, Hamster; conditions: hamster; BHK cells; beyond the limit of reversible inhibition; read-out: irreversible, d. h. toxische Wirkung
Excerpt: as §1

[3] = test system: LTK-Mäusezellen (Fibroblasten); assay: Inhibition of proliferation (thymidine incorporation), LTK mouse cells; assay type: cell-based, Mäuse; conditions: LTK mouse cells (Beispiel 4)
Method: (§2) Man ließ Ajoen auf eine Zellkultur der SV40-transformierten Baby-Hamster-Kidney-Linie (BHK; Fibroblast) einwirken. Die Proliferationshemmung wurde über den Einbau von radioaktivem Thymidin getestet. Sie ließ sich ab 1 µg Ajoen/ml ermitteln. Die Figur zeigt eine typische Hemmkurve. Der Figur läßt sich entnehmen, daß die Ki-Werte (50 %) im Bereich von etwa 1 bis 10 und insbesondere etwa 2 bis 5 µg Ajoen/ml lagen.
(§3) Beispiel 1 wurde ferner abweichend mit folgenden Linien nachgearbeitet: Hela-Zellen (Beispiel 3), LTK-Mäusezellen (Fibro blasten; Beispiel 4) und humane FS4-Vorhautzellen (Fibroblast). Auch bei diesen Beispielen wurde die cytostatische und cytotoxische Wirkung des Ajoens bestätigt.

[4] = test system: humane FS4-Vorhautzellen (Fibroblast); assay: Inhibition of proliferation (thymidine incorporation), human FS4 foreskin cells; assay type: cell-based
Method: as §2, §3

Hela-Zellen = assay: Inhibition of proliferation (thymidine incorporation), Hela cells; assay type: cell-based; conditions: Hela cells (Beispiel 3)
Method: as §2, §3

C=CCSSC=CC[S+]([O-])CC=C (stereo not drawn) [Ajoen]
Hemmung der Proliferation reversibel bis zu ([1]; upper concentration of reversible inhibition): ≤ 20 µg Ajoen/ml | minimal effective concentration ([1]; Mesocricetus auratus, lowest concentration at which inhibition was detectable, thymidine incorporation, read-out: Proliferationshemmung ließ sich ermitteln ab): ≥ 1 µg/mL | MCC [2]: > 20 µg/mL | cytostatische und cytotoxische Wirkung [3]: bestätigt | cytostatische und cytotoxische Wirkung [4]: bestätigt | cytostatische und cytotoxische Wirkung (Hela-Zellen): bestätigt
